According to ChEMBL document CHEMBL4177640, “Potential anti-proliferative agents from 1,4-benzoxazinone-quinazolin-4(3H)-one templates” (2017):

Tests used:
Type in all cases: functional
HeLa = assay: Antiproliferative activity against human HeLa cells after 48 hrs by SRB cell proliferation assay
MDA-MB-231 = assay: Antiproliferative activity against human MDA-MB-231 cells after 48 hrs by SRB cell proliferation assay; conditions: MDA-MB-231, 48 h
A549 = assay: Antiproliferative activity against human A549 cells after 48 hrs by SRB cell proliferation assay; conditions: A549, 48 h

| SMILES | GI50 (HeLa) [µM] | GI50 (MDA-MB-231) [µM] | GI50 (A549) [µM] |
| --- | --- | --- | --- |
| O=C(CN1C(=O)COc2ccccc21)c1ccc(/C=C/Cn2c(-c3ccc(Cl)cc3)nc3ccccc3c2=O)cc1 | 1.1 | 2 | 0.76 |
| O=C(CN1C(=O)COc2ccccc21)c1ccc(/C=C/Cn2c(-c3ccc(F)cc3)nc3ccccc3c2=O)cc1 | 1.02 | 1.52 | 0.81 |
| Cc1ccc(-c2nc3ccccc3c(=O)n2C/C=C/c2ccc(C(=O)CN3C(=O)COc4ccccc43)cc2)cc1 | 1.4 | 3.4 | 0.9 |
| COC(=O)Nc1nc2cc(C(=O)c3cccs3)ccc2[nH]1 [NOCODAZOLE] | < 0.01 | < 0.01 | < 0.01 |
| O=C(CN1C(=O)COc2ccccc21)c1ccc(/C=C/Cn2c(-c3ccc(Cl)cc3Cl)nc3ccccc3c2=O)cc1 | 0.62 | 2.73 | 0.91 |
| COc1cccc(-c2nc3ccccc3c(=O)n2C/C=C/c2ccc(C(=O)CN3C(=O)COc4ccccc43)cc2)c1 | 0.55 | 13 | 0.61 |
| Cc1nc2ccccc2c(=O)n1C/C=C/c1ccc(C(=O)CN2C(=O)COc3ccccc32)cc1 | 0.88 | 6.14 | 0.91 |
| COc1ccc(-c2nc3ccccc3c(=O)n2C/C=C/c2ccc(C(=O)CN3C(=O)COc4ccccc43)cc2)cc1 | 1.03 | 3.6 | 1.5 |
| O=C(CN1C(=O)COc2ccccc21)c1ccc(/C=C/Cn2c(-c3ccc([N+](=O)[O-])cc3)nc3ccccc3c2=O)cc1 | 0.66 | 8.8 | 1 |
| CCOc1ccc(-c2nc3ccccc3c(=O)n2C/C=C/c2ccc(C(=O)CN3C(=O)COc4ccccc43)cc2)cc1 | 1.05 | 1.13 | 1 |
| O=C(CN1C(=O)COc2ccccc21)c1ccc(/C=C/Cn2c(-c3ccccc3)nc3ccccc3c2=O)cc1 | 1.37 | 13.4 | 1 |
| COc1ccc(-c2nc3ccccc3c(=O)n2C/C=C/c2ccc(C(=O)CN3C(=O)COc4ccccc43)cc2)c(OC)c1OC | 1.51 | 6.76 | 0.32 |
| COc1ccc(-c2nc3ccccc3c(=O)n2C/C=C/c2ccc(C(=O)CN3C(=O)COc4ccccc43)cc2)c(OC)c1 | 0.59 | 6.03 | 1.36 |
| COc1ccc(/C=C\c2cc(OC)c(OC)c(OC)c2)cc1O [COMBRETASTATIN A4] | 0.084 | 0.046 | 0.056 |
| O=C(CN1C(=O)COc2ccccc21)c1ccc(/C=C/Cn2c(-c3ccc(C(F)(F)F)cc3)nc3ccccc3c2=O)cc1 | 1.32 | 0.58 | 0.93 |
| COc1ccc(-c2nc3ccccc3c(=O)n2C/C=C/c2ccc(C(=O)CN3C(=O)COc4ccccc43)cc2)c(F)c1 | 0.37 | 2.4 | 0.67 |
